# Laboratory results as given in the supplement of paper PMC5579334.
# Experiments:
# YST-1 = assay: relative IC50 (inflection point of fitted dose-response curve, CellTiter-Glo viability, 72 h; top asymptote may be below 50% inhibition); higher = less potent
# Method in brief: (§1)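 After seeding 750–1000 cells per well of MPNST cell lines or primary human Schwann cells into 384-well plates preprinted with each compound at five concentrations in 10-fold steps, plates were kept 72 h at 37 °C, 5% CO2. Viability was read as CellTiter-Glo ATP luminescence relative to vehicle and positive-control wells, with duplicates averaged where present. The data were fitted with four-parameter logistic models. Drug sensitivity score and relative IC50, censored at the top concentration, derive from the fits, and percent inhibition refers to the top concentration.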
# S462 = assay: as above
# Method in brief: as §1
# HSC2 [1] = assay: as above
# Method in brief: as §1
# HS-Sch-2 = assay: as above
# Method in brief: as §1
# S1507-2 [2] = assay: as above
# Method in brief: as §1
# HS-PSS [3] = assay: as above
# Method in brief: as §1
# HSC1 [4] = assay: as above
# Method in brief: as §1
# ST8814 [5] = assay: as above
# Method in brief: as §1
# STS26T [6] = assay: as above
# Method in brief: as §1
# HSC2 [7] = assay: relative IC50 (inflection point of fitted dose-response curve, CellTox-Green cytotoxicity, 72 h; top asymptote may be below 50%); higher = less potent
# Method in brief: (§2)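 For 72 h at 37 °C, MPNST cell lines and primary human Schwann cells were exposed in 384-well plates to five 10-fold compound dilutions. CellTox-Green, added before seeding at a final 1:1000 dilution, gave fluorescence from DNA released by disrupted cells. Signals were scaled to vehicle and positive-control wells, cultures failing plate quality control were left out, and four-parameter logistic fits were applied. Relative IC50 and drug sensitivity score were derived from the fits, with IC50 censored at the top concentration.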
# S1507-2 [8] = assay: as above
# Method in brief: as §2
# HS-PSS [9] = assay: as above
# Method in brief: as §2
# HSC1 [10] = assay: as above
# Method in brief: as §2
# ST8814 [11] = assay: as above
# Method in brief: as §2
# STS26T [12] = assay: as above
# Method in brief: as §2
SMILES,relative IC50 (YST-1) [nM],relative IC50 (S462) [nM],relative IC50 (HSC2 [1]) [nM],relative IC50 (HS-Sch-2) [nM],relative IC50 (S1507-2 [2]) [nM],relative IC50 (HS-PSS [3]) [nM],relative IC50 (HSC1 [4]) [nM],relative IC50 (ST8814 [5]) [nM],relative IC50 (STS26T [6]) [nM],relative IC50 (HSC2 [7]) [nM],relative IC50 (S1507-2 [8]) [nM],relative IC50 (HS-PSS [9]) [nM],relative IC50 (HSC1 [10]) [nM],relative IC50 (ST8814 [11]) [nM],relative IC50 (STS26T [12]) [nM]
CNC(=O)c1cccc(-c2ccc3c(N4CCOC[C@@H]4C)nc(N4CCOC[C@@H]4C)nc3n2)c1 [AZD2014],119,364,322,366,335,505,306,654,401,> 10000,> 10000,> 10000,> 10000,> 10000,> 10000
CO[C@H]1[C@@H](N(C)C(=O)c2ccccc2)C[C@@H]2O[C@@]1(C)n1c3ccccc3c3c4c(c5c6ccccc6n2c5c31)C(=O)NC4 [Midostaurin],163,580,155,409,282,465,112,443,436,243,395,> 10000,901,274,323
C[C@@]1(C(=O)Nc2ccc(F)nc2)CCCN1c1nc(Nc2cc(C3CC3)n[nH]2)c2cccn2n1,18.2,307,308,1150,495,1650,441,534,663,1400,1650,3330,2360,312,279
CC1(COc2ccc3c(c2)ncn3-c2ccc3cccc(N4CCC(N)CC4)c3n2)COC1 [Crenolanib],3310,3270,2430,1250,2280,3640,2670,1750,2710,3310,1950,3150,2930,1980,3240
O=C(Nc1c[nH]nc1-c1nc2ccc(CN3CCOCC3)cc2[nH]1)NC1CC1 [AT9283],139,122,79.6,332,94.6,178,83.1,60.2,172,276,167,> 1000,231,31.9,145
CC(=O)O[C@H]1C(=O)[C@@]2(C)[C@H]([C@H](OC(=O)c3ccccc3)[C@]3(O)C[C@H](OC(=O)[C@H](O)[C@@H](NC(=O)c4ccccc4)c4ccccc4)C(C)=C1C3(C)C)[C@]1(OC(C)=O)CO[C@@H]1C[C@@H]2O [Paclitaxel],3.83,3.84,8.36,8.71,18.5,6.92,8.18,21.7,4.63,19,42.3,> 1000,24.4,25,1.72
O=C(/C=C/c1cccnc1)NCCCCC1CCN(C(=O)c2ccccc2)CC1 [Daporinad],2.8,4.41,8.05,3.57,37.8,5.73,7.32,7.62,36.9,> 1000,> 1000,> 1000,> 1000,> 1000,36.1
CN[C@@H]1C[C@H]2O[C@@](C)([C@@H]1OC)n1c3ccccc3c3c4c(c5c6ccccc6n2c5c31)C(=O)N[C@H]4O [UCN-01],85.9,29.5,24.8,63.3,19.3,121,44.8,51.9,44.3,158,159,2130,459,257,24.9
Cc1cc2c(F)c(Oc3ncnn4cc(OC[C@@H](C)O)c(C)c34)ccc2[nH]1 [Brivanib],> 1000,> 1000,> 1000,> 1000,> 1000,> 1000,> 1000,> 1000,> 1000,> 1000,> 1000,> 1000,> 1000,> 1000,> 1000
O=C(Cc1ccc(-c2ccc(OCCN3CCOCC3)cc2)cn1)NCc1ccccc1 [KX2-391],49.1,34.3,73,30.5,46.7,163,52.3,36.4,29.4,139,30.2,> 10000,112,33.8,23.6
c1ccc([C@H]2CN3CCSC3=N2)cc1 [Levamisole],> 10000,> 10000,> 10000,> 10000,> 10000,> 10000,> 10000,> 10000,> 10000,> 10000,> 10000,> 10000,> 10000,> 10000,> 10000
CCC1(c2ccc(N)cc2)CCC(=O)NC1=O (stereo not given) [Aminoglutethimide],> 10000,> 10000,> 10000,> 10000,> 10000,> 10000,> 10000,> 10000,> 10000,> 10000,> 10000,> 10000,> 10000,> 10000,> 10000
